Data as given in BindingDB's records for doi:10.1016/S0960-894X(01)80832-5 (1994).

These molecules were tested against Gastrin/cholecystokinin type B receptor (Cavia porcellus) (assay: Inhibitory activity against cholecystokinin-B (CCK-B) receptor in cortex of male hartley guinea pig.).

Compound | IC50
Cc1cccc(NC(=O)N[C@@H]2C[C@H](c3ccccc3C)C[C@H](c3ccccc3)N(CC(=O)NC(C(C)(C)C)C(C)(C)C)C2=O)c1 [N-(1-tert-Butyl-2,2-dimethyl-propyl)-2-[(3R,5S,7R)-2-oxo-7-phenyl-5-o-tolyl-3-(3-m-tolyl-ureido)-azepan-1-yl]-acetamide] | 453 nM
CCc1cccc(NC(=O)N[C@@H]2C[C@H](c3ccccc3C)C[C@H](c3ccccc3)N(CC(=O)NC3(C)CCCCC3)C2=O)c1 [2-{(3R,5S,7R)-3-[3-(3-Ethyl-phenyl)-ureido]-2-oxo-7-phenyl-5-o-tolyl-azepan-1-yl}-N-(1-methyl-cyclohexyl)-acetamide] | 38 nM
CCc1ccccc1[C@@H]1C[C@H](c2ccccc2)N(CC(=O)NC(C)(C)C)C(=O)[C@H](NC(=O)Nc2cccc(C)c2)C1 [N-tert-Butyl-2-[(3R,5S,7R)-5-(2-ethyl-phenyl)-2-oxo-7-phenyl-3-(3-m-tolyl-ureido)-azepan-1-yl]-acetamide] | 25 nM
Cc1ccc([C@@H]2C[C@H](c3ccccc3)N(CC(=O)NC(C)(C)C)C(=O)[C@H](NC(=O)Nc3cccc(C)c3)C2)cc1 [N-tert-Butyl-2-[(3R,5S,7R)-2-oxo-7-phenyl-5-p-tolyl-3-(3-m-tolyl-ureido)-azepan-1-yl]-acetamide] | 190 nM
Cc1cccc(NC(=O)N[C@@H]2C[C@H](c3ccccc3)C[C@H](c3ccc(F)cc3)N(CC(=O)NC(C)(C)C)C2=O)c1 [N-tert-Butyl-2-[(3R,5S,7R)-7-(4-fluoro-phenyl)-2-oxo-5-phenyl-3-(3-m-tolyl-ureido)-azepan-1-yl]-acetamide] | 203 nM
Cc1cccc(NC(=O)N[C@@H]2C[C@H](c3ccc(F)cc3)C[C@H](c3ccccc3)N(CC(=O)NC(C)(C)C)C2=O)c1 [N-tert-Butyl-2-[(3R,5S,7R)-5-(4-fluoro-phenyl)-2-oxo-7-phenyl-3-(3-m-tolyl-ureido)-azepan-1-yl]-acetamide] | 65 nM
Cc1cccc(NC(=O)N[C@@H]2C[C@H](c3ccccc3)C[C@H](c3cccc(F)c3)N(CC(=O)NC(C)(C)C)C2=O)c1 [N-tert-Butyl-2-[(3R,5S,7R)-7-(3-fluoro-phenyl)-2-oxo-5-phenyl-3-(3-m-tolyl-ureido)-azepan-1-yl]-acetamide] | 31 nM
Cc1cccc(NC(=O)N[C@@H]2C[C@H](c3ccccc3)C[C@H](c3cccc(C)c3)N(CC(=O)NC(C)(C)C)C2=O)c1 [N-tert-Butyl-2-[(3R,5S,7R)-2-oxo-5-phenyl-7-m-tolyl-3-(3-m-tolyl-ureido)-azepan-1-yl]-acetamide] | 141 nM
Cc1cccc(NC(=O)N[C@@H]2C[C@H](c3ccccc3C)C[C@H](c3ccccc3)N(CC(=O)Nc3ccccc3Cl)C2=O)c1 [N-(2-Chloro-phenyl)-2-[(3R,5S,7R)-2-oxo-7-phenyl-5-o-tolyl-3-(3-m-tolyl-ureido)-azepan-1-yl]-acetamide] | 28 nM
Cc1cccc(NC(=O)N[C@@H]2C[C@H](c3ccccc3C)C[C@H](c3ccccc3)N(CC(=O)NC(C)(C)C)C2=O)c1 [N-tert-Butyl-2-[(3R,5S,7R)-2-oxo-7-phenyl-5-o-tolyl-3-(3-m-tolyl-ureido)-azepan-1-yl]-acetamide] | 7.8 nM
Cc1ccccc1[C@@H]1C[C@H](c2ccccc2)N(CC(=O)NC(C)(C)C)C(=O)[C@H](NC(=O)Nc2cccc([N+](=O)[O-])c2)C1 [N-tert-Butyl-2-{(3R,5S,7R)-3-[3-(3-nitro-phenyl)-ureido]-2-oxo-7-phenyl-5-o-tolyl-azepan-1-yl}-acetamide] | 10 nM
Cc1cccc(NC(=O)N[C@@H]2C[C@H](c3ccccc3C)C[C@H](c3ccccc3)N(CC(=O)NC3(C)CCCCC3)C2=O)c1 [N-(1-Methyl-cyclohexyl)-2-[(3R,5S,7R)-2-oxo-7-phenyl-5-o-tolyl-3-(3-m-tolyl-ureido)-azepan-1-yl]-acetamide] | 134 nM
Cc1cccc(NC(=O)N[C@@H]2C[C@H](c3ccccc3C)C[C@H](c3ccccc3)N(CC(=O)Nc3ccccc3C)C2=O)c1 [2-[(3R,5S,7R)-2-Oxo-7-phenyl-5-o-tolyl-3-(3-m-tolyl-ureido)-azepan-1-yl]-N-o-tolyl-acetamide] | 71 nM
Cc1ccccc1[C@@H]1C[C@H](c2ccccc2)N(CC(=O)NC(C)(C)C)C(=O)[C@H](NC(=O)Nc2cccc(C(F)(F)F)c2)C1 [N-tert-Butyl-2-{(3R,5S,7R)-2-oxo-7-phenyl-5-o-tolyl-3-[3-(3-trifluoromethyl-phenyl)-ureido]-azepan-1-yl}-acetamide] | 28 nM
Cc1ccc([C@H]2C[C@@H](c3ccccc3)C[C@@H](NC(=O)Nc3cccc(C)c3)C(=O)N2CC(=O)NC(C)(C)C)cc1 [N-tert-Butyl-2-[(3R,5S,7R)-2-oxo-5-phenyl-7-p-tolyl-3-(3-m-tolyl-ureido)-azepan-1-yl]-acetamide] | 560 nM
Cc1ccccc1[C@@H]1C[C@H](c2ccccc2)N(CC(=O)NC(C)(C)C)C(=O)[C@H](NC(=O)Nc2ccc(Cl)cc2)C1 [N-tert-Butyl-2-{(3R,5S,7R)-3-[3-(4-chloro-phenyl)-ureido]-2-oxo-7-phenyl-5-o-tolyl-azepan-1-yl}-acetamide] | 117 nM
COc1ccc(NC(=O)N[C@@H]2C[C@H](c3ccccc3C)C[C@H](c3ccccc3)N(CC(=O)NC(C)(C)C)C2=O)cc1 [N-tert-Butyl-2-{(3R,5S,7R)-3-[3-(4-methoxy-phenyl)-ureido]-2-oxo-7-phenyl-5-o-tolyl-azepan-1-yl}-acetamide] | 87 nM
Cc1ccc(NC(=O)CN2C(=O)[C@H](NC(=O)Nc3cccc(C)c3)C[C@H](c3ccccc3C)C[C@@H]2c2ccccc2)cc1 [2-[(3R,5S,7R)-2-Oxo-7-phenyl-5-o-tolyl-3-(3-m-tolyl-ureido)-azepan-1-yl]-N-p-tolyl-acetamide] | 40 nM
Cc1ccccc1[C@@H]1C[C@H](c2ccccc2)N(CC(=O)NC(C)(C)C)C(=O)[C@H](NC(=O)Nc2cccc(F)c2)C1 [N-tert-Butyl-2-{(3R,5S,7R)-3-[3-(3-fluoro-phenyl)-ureido]-2-oxo-7-phenyl-5-o-tolyl-azepan-1-yl}-acetamide] | 36 nM
COc1ccccc1[C@@H]1C[C@H](c2ccccc2)N(CC(=O)NC(C)(C)C)C(=O)[C@H](NC(=O)Nc2cccc(C)c2)C1 [N-tert-Butyl-2-[(3R,5S,7R)-5-(2-methoxy-phenyl)-2-oxo-7-phenyl-3-(3-m-tolyl-ureido)-azepan-1-yl]-acetamide] | 28 nM

Biological target: Gastrin/cholecystokinin type B receptor (Cavia porcellus)
Assay: as above
Remark: another data set of the same source

Compound | IC50
Cc1cccc(NC(=O)N[C@@H]2C[C@H](c3ccccc3C)C[C@H](c3ccccc3)N(CC(=O)NC(C)(C)C)C2=O)c1 [N-tert-Butyl-2-[(3R,5S,7R)-2-oxo-7-phenyl-5-o-tolyl-3-(3-m-tolyl-ureido)-azepan-1-yl]-acetamide] | 527 nM
